Holding throughout (type): functional
The subject of assay [1] is Mycolicibacterium smegmatis. The assay is described as follows: Selectivity ratio of MIC for Mycobacterium smegmatis ICHO1018 overexpressing KasB to MIC for wild-type Mycobacterium smegmatis MC2 155.
The test system of assay [2] is Mycolicibacterium smegmatis. The assay is described as follows: Antimycobacterial activity against Mycobacterium smegmatis ICHO1019 overexpressing FabH.
Assay [3] has as its system Mycolicibacterium smegmatis. The assay is described as follows: Antimycobacterial activity against Mycobacterium smegmatis ICHO1018 overexpressing KasB.
Assay [4] has as its system Mycolicibacterium smegmatis. Put plainly: Antimycobacterial activity against Mycobacterium smegmatis ICHO1017 overexpressing KasA.
In assay [5] the test system is Mycolicibacterium smegmatis. Put plainly: Antimycobacterial activity against Mycobacterium smegmatis ICHO1001 harboring pMV261.
The test system of assay [6] is Mycolicibacterium smegmatis. The assay is described as follows: Antimycobacterial activity against wild-type Mycobacterium smegmatis MC2 155. As to conditions: str. MC2 155.
In assay [7] the test system is Mycobacterium tuberculosis. The assay is described as follows: Ratio of MBC99.9 to MIC for Mycobacterium tuberculosis LV54.
Assay [8] concerns Mycobacterium tuberculosis. Put plainly: Ratio of MBC99.9 to MIC for Mycobacterium tuberculosis H37Rv ATCC 27294.
Assay [9] deals with Mycobacterium tuberculosis. The assay is described as follows: Antimycobacterial activity against Mycobacterium tuberculosis LV54 by microbroth dilution method. In general terms: In broth dilution the organism is exposed to a series of concentrations in liquid medium.
Assay [10] concerns Mycobacterium tuberculosis. The assay is described as follows: Antimycobacterial activity against Mycobacterium tuberculosis H37Rv ATCC 27294 by microbroth dilution method.
The test system of assay [11] is Mycolicibacterium smegmatis. Put plainly: Antimycobacterial activity against Mycobacterium smegmatis MC2 155 under hypoxic condition after 96 hrs. As to conditions: str. MC2 155, 96 h.
Assay [12] concerns Mycolicibacterium smegmatis. The assay is described as follows: Antimycobacterial activity against Mycobacterium smegmatis MC2 155 under aerobic condition after 48 hrs by MTT assay. Conditions: str. MC2 155, 48 h. (Tetrazolium assays rely on reduction of a dye to a coloured formazan, in cell work by metabolically active cells.)

The text below walks through data of ChEMBL document CHEMBL3217504, “Potent growth inhibitory activity of ()-platencin towards multi-drug-resistant and extensively drug-resistant Mycobacterium tuberculosis” (2013).

In brackets after ≈: the same amount, converted by molar mass.

One may read the MIC as the smallest concentration in the dilution series that meets the test's criterion for growth inhibition. A lower MIC goes with inhibition by little substance. Turning to `C=C1C[C@@]23C=CC(=O)[C@@](C)(CCC(=O)Nc4c(O)ccc(C(=O)O)c4O)[C@@H]2C[C@@H]1CC3` (racemic) [PLATENCIN], the figures for the Ratio in [1], in assay [7] and in [8] were >17, >64 and >64, respectively. Moreover, the MIC in assay [2] is 1 µg/mL (≈ 2.35 µM); in assay [3] it was > 8.5 µg/mL; in assay [4], 1 µg/mL (≈ 2.35 µM); in assay [5], 0.5 µg/mL (≈ 1.18 µM); in assay [6] it was 0.5 µg/mL (≈ 1.18 µM); in [9], 1 µg/mL (≈ 2.35 µM). Further, the MIC in [10] was determined as 2 µg/mL (≈ 4.7 µM); in assay [11] it was 0.3 µg/mL (≈ 0.705 µM); in [12], 0.5 µg/mL (≈ 1.18 µM).
`NNC(=O)c1ccncc1` [ISONIAZID]: the MIC came to 25 µg/mL (≈ 182 µM) in assay [11] and 2.5 µg/mL (≈ 18.2 µM) in assay [12].
